From patent publication US20210244720A1, “Therapeutic Tyrosine Kinase Inhibitors for Relapsing Multiple Sclerosis (RMS)” (Genzyme Corporation, priority 2020, published 2021)

Test system: participants with relapsing multiple sclerosis (RMS)
Experiment: Phase 2b study in RMS: safety and tolerability (adverse events, laboratory tests, ECG, vital signs)
[1] = 5 mg, 12 weeks treatment, n = 33
[2] = 5 mg, BTK inhibitor treatment period, safety population, N = 32
[3] = 5 mg, BTK inhibitor treatment period, safety population, N = 33
[4] = 15 mg, 12 weeks treatment, n = 32
[5] = 15 mg, BTK inhibitor treatment period, safety population, N = 32
[6] = 30 mg, 12 weeks treatment, n = 33
[7] = 30 mg, BTK inhibitor treatment period, safety population, N = 33
[8] = 60 mg, 12 weeks treatment, n = 32

## C=CC(=O)N1CCC[C@@H](n2c(=O)n(-c3ccc(Oc4ccccc4)cc3)c3c(N)nccc32)C1 [the BTK inhibitor, (R)-1-(1-acryloylpiperidin-3-yl)-4-amino-3-(4-phenoxyphenyl)-1H-imidazo[4,5-c]pyridin-2(3H)-one]
[1]
  Accidental overdose, patients n (%): 0
  Alanine aminotransferase increased, patients n (%): 1 (3%)
  Alopecia, patients n (%): 1 (3%)
  Back pain, patients n (%): 1 (3%)
  Gastroenteritis, patients n (%): 1 (3%)
  Headache, patients n (%): 1 (3%)
  Muscle spasticity, patients n (%): 0
  Nasopharyngitis, patients n (%): 1 (3%)
  Oropharyngeal pain, patients n (%): 1 (3%)
  Peripheral edema, patients n (%): 2 (6%)
  Respiratory tract infection, patients n (%): 0
  Upper respiratory tract infection, patients n (%): 2 (6%)
[2]
  Participants with any TEAE, %: (50.0) %
  Participants with any treatment-related TEAE, %: (18.8) %
  Participants with treatment emergent SAE(s), Any class, n(%): 0
  Participants with treatment emergent SAE(s), Multiple sclerosis relapse, n(%): 0
  Participants with treatment emergent SAE(s), NERVOUS SYSTEM DISORDERS, n(%): 0
[3]
  AESI, Alanice aminotransferase increased, n (%): 0
  AESI, Investigations, n (%): 0
  Any AESI, n (%): 0
5 mg, Weeks 1 to 4, N = 16
  AESI, Alanice aminotransferase increased, n (%): 0
  AESI, Investigations, n (%): 0
  Any AESI, n (%): 0
5 mg, Weeks 1 to 4, N = 32
  Participants with any TEAE, %: (25.0) %
  Participants with any treatment-related TEAE, %: (12.5) %
5 mg, Weeks 1 to 4, n = 16
  Any AE, %: (31.3%)
  Any treatment-related AE, %: (12.5%)
5 mg, Weeks 1 to 12, n = 33
  Any AE, %: (57.6) %
  Any treatment-related AE, %: (15.2) %
[4]
  Accidental overdose, patients n (%): 0
  Alanine aminotransferase increased, patients n (%): 0
  Alopecia, patients n (%): 1 (3%)
  Back pain, patients n (%): 1 (3%)
  Gastroenteritis, patients n (%): 0
  Headache, patients n (%): 3 (9%)
  Muscle spasticity, patients n (%): 0
  Nasopharyngitis, patients n (%): 0
  Oropharyngeal pain, patients n (%): 0
  Peripheral edema, patients n (%): 0
  Respiratory tract infection, patients n (%): 1 (3%)
  Upper respiratory tract infection, patients n (%): 2 (6%)
[5]
  AESI, Alanice aminotransferase increased, n (%): 0
  AESI, Investigations, n (%): 0
  Any AESI, n (%): 0
  Participants with any TEAE, %: (56.3) %
  Participants with any treatment-related TEAE, %: (9.4) %
  Participants with treatment emergent SAE(s), Any class, n(%): 0
  Participants with treatment emergent SAE(s), Multiple sclerosis relapse, n(%): 0
  Participants with treatment emergent SAE(s), NERVOUS SYSTEM DISORDERS, n(%): 0
15 mg, Weeks 1 to 4, N = 16
  AESI, Alanice aminotransferase increased, n (%): 0
  AESI, Investigations, n (%): 0
  Any AESI, n (%): 0
15 mg, Weeks 1 to 4, N = 32
  Participants with any TEAE, %: (43.8) %
  Participants with any treatment-related TEAE, %: (3.1) %
15 mg, Weeks 1 to 4, n = 16
  Any AE, %: (18.9%)
15 mg, Weeks 1 to 12, n = 32
  Any AE, %: (53.1) %
  Any treatment-related AE, %: (3.1) %
30 mg group, Week 8 visit
  ALT level of the AESI participant: 105 U/L
30 mg group, within 4 days after Week 8 visit
  ALT level of the AESI participant: 32 U/L
30 mg treatment period
  AESIs (alanine aminotransferase increased >3×ULN): 1
[6]
  Accidental overdose, patients n (%): 0
  Alanine aminotransferase increased, patients n (%): 1 (3%)
  Alopecia, patients n (%): 0
  Back pain, patients n (%): 2 (6%)
  Gastroenteritis, patients n (%): 0
  Headache, patients n (%): 1 (3%)
  Muscle spasticity, patients n (%): 1 (3%)
  Nasopharyngitis, patients n (%): 1 (3%)
  Oropharyngeal pain, patients n (%): 1 (3%)
  Peripheral edema, patients n (%): 0
  Respiratory tract infection, patients n (%): 1 (3%)
  Upper respiratory tract infection, patients n (%): 1 (3%)
[7]
  AESI, Alanice aminotransferase increased, n (%): 1 (3.0)
  AESI, Investigations, n (%): 1 (3.0)
  Any AESI, n (%): 1 (3.0)
  Participants with any TEAE, %: (51.5) %
  Participants with any severe TEAE, %: (3.0) %
  Participants with any treatment emergent SAE, %: (3.0) %
  Participants with any treatment-related TEAE, %: (12.1) %
  Participants with treatment emergent SAE(s), Any class, n(%): 1 (3.0)
  Participants with treatment emergent SAE(s), Multiple sclerosis relapse, n(%): 1 (3.0)
  Participants with treatment emergent SAE(s), NERVOUS SYSTEM DISORDERS, n(%): 1 (3.0)
30 mg, Weeks 1 to 4, N = 16
  AESI, Alanice aminotransferase increased, n (%): 0
  AESI, Investigations, n (%): 0
  Any AESI, n (%): 0
30 mg, Weeks 1 to 4, N = 33
  Participants with any TEAE, %: (42.4) %
  Participants with any treatment-related TEAE, %: (12.1) %
30 mg, Weeks 1 to 4, n = 16
  Any AE, %: (12.5%)
30 mg, Weeks 1 to 12, n = 33
  Any AE, %: (54.5) %
  Any treatment-related AE, %: (12.1) %
60 mg group, Week 4 visit, ULN 34 U/L
  ALT level of the AESI participant: 107 U/L
60 mg group, Week 12
  ALT level of the AESI participant: 28 U/L
60 mg treatment period
  AESIs (alanine aminotransferase increased >3×ULN): 1
[8]
  Accidental overdose, patients %: (9%)
  Accidental overdose, patients n: 3
  Alanine aminotransferase increased, patients %: (3%)
  Alanine aminotransferase increased, patients n: 1
  Alopecia, patients %: (3%)
  Alopecia, patients n: 1
  Back pain, patients n: 0
  Gastroenteritis, patients %: (6%)
  Gastroenteritis, patients n: 2
  Headache, patients %: (13%)
  Headache, patients n: 4
  Muscle spasticity, patients %: (6%)
  Muscle spasticity, patients n: 2
